Data: patent US20160051541A1 (CHANRX CORPORATION, priority 2013, published 2016)
Read-outs that look alike come from different tables or passages of the source.

Key:
[1] = Example 1: plasma concentrations of vanoxerine and metabolites after a 300 mg dose in patients; type: in vivo, human; conditions: for concentration at 1 h / concentration at 3 h / concentration at 4 h / concentration at 6 h / concentration at 8 h / concentration at 12 h / concentration at 24 h / concentration at 0.5 h: human, plasma, 300 mg; for concentration at 0.5 h: .5 h
Description: Each patient gave blood samples before administration of their dose, and then again at nine further time points, 30 minutes after administration, 1, 2, 3, 4, 6, 8, 12, and 24 hours post administration.

[2] = Example 2: daily doses of vanoxerine for 11 consecutive days in 12 subjects (PK, heart rate, blood pressure); type: in vivo, human; conditions: for PK Data (Mean +/- SD) T1/2 / PK Data (Mean +/- SD) CMax: 11 consecutive days
[3] = Example 3: vanoxerine daily for 14 days in fourteen healthy patients; type: in vivo, human
Description: A standardized meal was served 15 minutes prior to each dosing.

[4] = Example 4: vanoxerine daily for 7 days in four patients; type: in vivo, human; conditions: 50, 100 and 150 mg daily, all patients
[5] = Pharmacokinetic tests in dogs; type: in vivo; conditions: dog, plasma; repetitive dosing in dogs
[6] = Further studies of half-life and steady state on oral dosing; type: in vivo; conditions: in some cases
[7] = Recovery of radioactivity labeled vanoxerine in rats; type: in vivo
[8] = Preliminary studies of daily use over 7, 10 and 14 days; type: in vivo; conditions: 75, 100, 125 and 150 mg a day over 7, 10 and 14 days
[9] = cited from earlier work
atrial fibrillation = conditions: canines, cited from earlier work
[10] = 10 patients, 1.00 = below LLOQ, read-out: High concentration group average
[11] = 15 patients, 1.00 = below LLOQ, read-out: Low concentration group average

## Fc1ccc(C(OCCN2CCN(CCCc3ccccc3)CC2)c2ccc(F)cc2)cc1 [Vanoxerine, 1-[2-[bis(4-fluorophenyl)methoxy]ethyl]-4-(3-phenylpropyl)piperazine]
[1]; [10]
  concentration at 1 h: 115 ng/mL
  concentration at 3 h: 156 ng/mL
  concentration at 4 h: 96.1 ng/mL
  concentration at 6 h: 57.1 ng/mL
  concentration at 8 h: 43.2 ng/mL
  concentration at 12 h: 29.3 ng/mL
  concentration at 0.5 h: 37.7 ng/mL
[1]; 10 patients, read-out: High concentration group average
  concentration at 24 h: 3.07 ng/mL
[1]; [11]
  concentration at 1 h: 40.1 ng/mL
  concentration at 3 h: 31.4 ng/mL
  concentration at 4 h: 24.4 ng/mL
  concentration at 6 h: 16.7 ng/mL
  concentration at 8 h: 11.8 ng/mL
  concentration at 12 h: 6.31 ng/mL
  concentration at 24 h: 5.01 ng/mL
  concentration at 0.5 h: 17 ng/mL
[1]; low concentration group
  plasma levels, highest at any time point: ~40 ng/mL
[2]; 25 mg daily
  plasma levels detectable: not detectable after 8 hours
[2]; 50 mg daily, range 4.71-110.57
  PK Data (Mean +/- SD) T1/2: 49.39 +/− 26.18 hr (4.71-110.57)
[2]; 75 mg daily
  PK Data (Mean +/- SD) CMax: 27.4 ± 15.5 ng/mL
[2]; 75 mg daily, range 10.26-116.67
  PK Data (Mean +/- SD) T1/2: 52.53 +/− 37.46 (10.26-116.67) hr
[2]; 100 mg daily
  PK Data (Mean +/- SD) CMax: 40.2 ± 26.6 ng/mL
[2]; 100 mg daily, range 5.56-125.00
  PK Data (Mean +/- SD) T1/2: 15.38 +/− 43.55 (5.56-125.00) hr
[2]; 50, 75 and 100 mg doses
  plasma levels detectable: detectable at 24 hours
[2]; 50, 75 and 100 mg doses daily
  steady state reached: ≤ 8 days
[2]; 75 and 100 mg doses daily
  heart rate and systolic blood pressure: increased slightly in most subjects
[2]; across 50, 75 and 100 mg doses
  PK linearity: linear and the dose proportional
[2]; daily doses
  half-life of the drug when daily doses are given: increased half-life
[2]; human, plasma, printed under the 50 mg line, +- 0.5 hr (0.5-2.0)
  Tmax: 1.27 h
[3]; 25, 75 and 125 mg daily for 14 days
  steady state serum levels reported within: 9 to 11 days
[3]; 25, 75 and 125 mg daily for 14 days, standardized meal before dosing
  adverse events: No significant adverse events
[3]; higher doses compared with lower doses
  serum levels, dose proportionality: disproportionately and statistically greater levels at higher doses
[4]
  steady-state levels achieved: within one week
[5]
  half-life: ~2.75 days
[6]; oral dosing
  steady state achieved within: ≤ 3 days
[6]; plasma, oral
  half-life: ≤ 5.21 days
[7]
  recovery of administered radioactivity: incomplete
[8]
  heart rate and systolic blood pressure: increased heart rate and systolic blood pressure
[9]; daily repetitive dose of 50 mg
  side-effects: no side-effects should be expected
[9]; higher doses
  side-effects: some effects were seen with regard to concentration difficulties, increase systolic blood pressure, asthenia, and a feeling of drug influence

## COc1ccccc1OCC(O)CN1CCN(CC(=O)Nc2c(C)cccc2C)CC1 (stereo not drawn) [ranolazine]
Atrial fibrillation; clinically relevant conditions
  anti-AF effect: suppress atrial fibrillation
Atrial fibrillation
  effects on ventricular myocardium: minimal effects on ventricular myocardium
